“And” between values parts separate entries of the source, which are not always exact repeats. Equal entries are not always repeated. Records with an inconclusive call do not appear.
Test system: BDF1 mice, B16 melanoma s.c., survival/tumor T/C
Assay: NCI In Vivo Anticancer Drug Screen. Data for tumor model B16 Melanoma (subcutaneous) in B6D2F1 (BDF1) mice
Method: The antitumor activity of compounds was measured in mice bearing transplantable tumors. Survival or tumor size were measured and the results are expressed as the measurement made in the treated group (T) divided by the measurement made in the vehicle treated control group (C). The tumor model used in this assay is B16 Melanoma (subcutaneous) in B6D2F1 (BDF1) mice

In the case of `Nc1nc(=S)c2[nH]cnc2[nH]1`, the T/C (endpoint: median survival time, dose: 48.0 mg/kg/injection, schedule: Q01DX001 (ip), vehicle: alkali diluted with saline, higher = longer survival) is reported as 102 % of control.
`N[C@@H](Cc1ccc(N(CCCl)CCCl)cc1)C(=O)O` was tested, and the T/C (endpoint: median survival time, dose: 1.0 mg/kg/injection, schedule: Q01DX009 (ip), vehicle: saline, higher = longer survival) was 93 % of control, the T/C (endpoint: median survival time, dose: 2.0 mg/kg/injection, schedule: Q01DX009 (ip), vehicle: saline, higher = longer survival) was 150 % of control and the T/C (endpoint: median survival time, dose: 4.0 mg/kg/injection, schedule: Q01DX009 (ip), vehicle: saline, higher = longer survival) was 123 % of control. For the same compound, the T/C (endpoint: median tumor weight (est.), dose: 1.25 mg/kg/injection, schedule: Q01DX009 (ip), vehicle: Klucel (hydroxypropylcellulose) (HPC), higher = larger tumour) was 63 % of control, the T/C (endpoint: median tumor weight (est.), dose: 2.5 mg/kg/injection, schedule: Q01DX009 (ip), vehicle: Klucel (hydroxypropylcellulose) (HPC), higher = larger tumour) was 44 % of control and the T/C (endpoint: median tumor weight (est.), dose: 5.0 mg/kg/injection, schedule: Q01DX009 (ip), vehicle: Klucel (hydroxypropylcellulose) (HPC), higher = larger tumour) was 18 % of control.
For `Nc1nc(=S)c2ncn(C3CC(O)C(CO)O3)c2[nH]1` (stereo unspecified), the T/C (endpoint: median survival time, dose: 4.0 mg/kg/injection, schedule: Q01DX009 (ip), vehicle: saline with Tween-80, higher = longer survival) was 109 % of control, the T/C (endpoint: median survival time, dose: 8.0 mg/kg/injection, schedule: Q01DX009 (ip), vehicle: saline with Tween-80, higher = longer survival) was 91 % of control and the T/C (endpoint: median survival time, dose: 16.0 mg/kg/injection, schedule: Q01DX009 (ip), vehicle: saline with Tween-80, higher = longer survival) was 95 % of control. The T/C (endpoint: median survival time, dose: 32.0 mg/kg/injection, schedule: Q01DX009 (ip), vehicle: saline with Tween-80, higher = longer survival) was 91 % of control and the T/C (endpoint: median survival time, dose: 64.0 mg/kg/injection, schedule: Q01DX009 (ip), vehicle: saline with Tween-80, higher = longer survival) was 123 % of control.
`O=C1C=CC(=O)N1c1ccc(Cl)cc1` was tested, and the T/C (endpoint: median survival time, dose: 1.25 mg/kg/injection, schedule: Q01DX009 (ip), vehicle: Klucel (hydroxypropylcellulose) (HPC), higher = longer survival) was 123 % of control, the T/C (endpoint: median survival time, dose: 5.0 mg/kg/injection, schedule: Q01DX009 (ip), vehicle: Klucel (hydroxypropylcellulose) (HPC), higher = longer survival) was 102 % of control and the T/C (endpoint: median survival time, dose: 10.0 mg/kg/injection, schedule: Q01DX009 (ip), vehicle: Klucel (hydroxypropylcellulose) (HPC), higher = longer survival) was 89 % of control. For the same compound, the T/C (endpoint: median survival time, dose: 20.0 mg/kg/injection, schedule: Q01DX009 (ip), vehicle: Klucel (hydroxypropylcellulose) (HPC), higher = longer survival) was 98 % of control.
In the case of `Cn1c(CCCC(=O)O)nc2cc(N(CCCl)CCCl)ccc21`, the T/C (endpoint: median survival time, dose: 2.5 mg/kg/injection, schedule: Q01DX009 (ip), vehicle: saline, higher = longer survival) is reported as 120 % of control, the T/C (endpoint: median survival time, dose: 5.0 mg/kg/injection, schedule: Q01DX009 (ip), vehicle: saline, higher = longer survival) is reported as 98 % of control and the T/C (endpoint: median survival time, dose: 10.0 mg/kg/injection, schedule: Q01DX009 (ip), vehicle: saline, higher = longer survival) is reported as 96 % of control.
With `ClC1=NC(Cl)C(Cl)=N/C1=N\c1ncn[nH]1` (stereo unspecified) the T/C (endpoint: median survival time, dose: 4.0 mg/kg/injection, schedule: Q01DX009 (ip), vehicle: Klucel (hydroxypropylcellulose) (HPC), higher = longer survival) was 106 % of control, the T/C (endpoint: median survival time, dose: 4.0 mg/kg/injection, schedule: Q01DX009 (ip), vehicle: water, higher = longer survival) was 89 % of control and the T/C (endpoint: median survival time, dose: 8.0 mg/kg/injection, schedule: Q01DX009 (ip), vehicle: Klucel (hydroxypropylcellulose) (HPC), higher = longer survival) was 113 % of control. For the same compound, the T/C (endpoint: median survival time, dose: 16.0 mg/kg/injection, schedule: Q01DX009 (ip), vehicle: Klucel (hydroxypropylcellulose) (HPC), higher = longer survival) was 101 % of control, the T/C (endpoint: median survival time, dose: 16.0 mg/kg/injection, schedule: Q01DX009 (ip), vehicle: water, higher = longer survival) was 170 % of control and the T/C (endpoint: median survival time, dose: 32.0 mg/kg/injection, schedule: Q01DX009 (ip), vehicle: water, higher = longer survival) was 121 % of control.
`CO[C@H]1C[C@](C)(O)Cc2cc3c(c(O)c21)C(=O)c1c(O)cc2c(c1C3=O)O[C@@H]1O[C@@]2(C)[C@H](O)[C@@H](N(C)C)[C@@H]1O` was tested, and the T/C (endpoint: median survival time, dose: 6.25 mg/kg/injection, schedule: Q01DX009 (ip), vehicle: other, higher = longer survival) was 104 % of control and the T/C (endpoint: median survival time, dose: 12.5 mg/kg/injection, schedule: Q01DX009 (ip), vehicle: other, higher = longer survival) was 95 % of control.
With `CCN(CC)CCNc1ccc(CO)c2sc3ccccc3c(=O)c12` the T/C (endpoint: median survival time, dose: 34.0 mg/kg/injection, schedule: Q01DX005 (ip), vehicle: water, higher = longer survival) was 105 % of control, the T/C (endpoint: median tumor weight (est.), dose: 34.0 mg/kg/injection, schedule: Q01DX005 (ip), vehicle: water, higher = larger tumour) was 55 % of control and the T/C (endpoint: median tumor weight (est.), dose: 50.0 mg/kg/injection, schedule: Q01DX005 (ip), vehicle: water, higher = larger tumour) was 72 % of control. The T/C (endpoint: median tumor weight (est.), dose: 75.0 mg/kg/injection, schedule: Q01DX005 (ip), vehicle: water, higher = larger tumour) was 28 % of control.
For `O=C1C(=O)c2ccccc2C(O)=C1CC=C(Cl)Cl`, the T/C (endpoint: median survival time, dose: 8.0 mg/kg/injection, schedule: Q01DX009 (ip), vehicle: saline + alcohol, higher = longer survival) was 87 % of control, the T/C (endpoint: median survival time, dose: 16.0 mg/kg/injection, schedule: Q01DX009 (ip), vehicle: saline + alcohol, higher = longer survival) was 109 % of control and the T/C (endpoint: median survival time, dose: 32.0 mg/kg/injection, schedule: Q01DX009 (ip), vehicle: saline + alcohol, higher = longer survival) was 77 % of control. The T/C (endpoint: median tumor weight (est.), dose: 12.5 mg/kg/injection, schedule: Q01DX009 (ip), vehicle: Klucel (hydroxypropylcellulose) (HPC), higher = larger tumour) was 94 % of control and 104 % of control and 108 % of control and the T/C (endpoint: median tumor weight (est.), dose: 50.0 mg/kg/injection, schedule: Q01DX009 (ip), vehicle: Klucel (hydroxypropylcellulose) (HPC), higher = larger tumour) was 53 % of control and 55 % of control and 64 % of control.

Reference: PubChem BioAssay AID194 (DTP/NCI, 2004)
